Consider 43 compounds from ChEMBL document CHEMBL3988442, “University of Dundee, Small-Polar-MMV Screening Library” (2021).

The assay has as its target Tryptophan--tRNA ligase (Mycobacterium tuberculosis (strain ATCC 25618 / H37Rv), UniProt P9WFT3). The assay is described as follows: Biochemical assay for Mt-TrpRS. Type of assay: functional.

Chain of Tryptophan--tRNA ligase (P9WFT3 whole entry): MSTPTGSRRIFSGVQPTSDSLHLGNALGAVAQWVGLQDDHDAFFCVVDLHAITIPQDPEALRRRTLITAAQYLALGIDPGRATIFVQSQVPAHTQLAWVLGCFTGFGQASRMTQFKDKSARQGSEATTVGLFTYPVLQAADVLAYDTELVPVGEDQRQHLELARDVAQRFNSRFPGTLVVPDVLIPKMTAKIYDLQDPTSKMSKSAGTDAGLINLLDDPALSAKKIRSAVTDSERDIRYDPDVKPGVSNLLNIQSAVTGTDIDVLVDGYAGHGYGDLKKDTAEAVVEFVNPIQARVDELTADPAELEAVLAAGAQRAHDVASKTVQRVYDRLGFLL

As for `NC(=O)CN1CCOCC(Cc2ccccc2)C1` (stereo not drawn), the IC50 is more than 195 µM.

For `Cn1cnc(S(=O)(=O)N2CC3(CCN(c4ccccc4)C3)C2)c1`, the half-maximal inhibitory concentration (IC50) is more than 195 µM.

`COc1ccccc1OCCc1nnc(NC(=O)C2CC23CCC3)s1` (stereo not drawn) gave a concentration for half-maximal inhibition (IC50) of more than 195 µM.

Compound `Cc1cncc(CN2C[C@@H](O)[C@H](Oc3ccccc3)C2)c1` had an IC50 of more than 195 µM.

Compound `O=C(c1cc2c(s1)CCC2)N1CCCC(c2cnccn2)C1` (stereo not drawn) gave an IC50 of more than 195 µM.

Consider `O=S(=O)(c1cccs1)N1CCCC(c2nccs2)C1` (stereo not drawn), for which the IC50 is more than 195 µM.

`COc1cc(CNc2cnn(CC(F)F)c2)ccc1O` had an IC50 of more than 195 µM.

For the compound `Cc1cnn(CC2CCCN2Cc2nc(N)c3ccccc3n2)c1` (stereo not drawn), the IC50 was more than 195 µM.

For the compound `CCC(=O)N1CCc2onc(CNS(C)(=O)=O)c2C1`, the concentration for half-maximal inhibition (IC50) is more than 195 µM.

For `COCC1CC2(CCN(C(=O)c3ccc(F)c(Cl)c3)CC2)CO1` (stereo not drawn), the concentration for half-maximal inhibition (IC50) is more than 195 µM.

The compound `CCSc1ncc(Cl)c(C(=O)NC(CCSC)C(=O)O)n1` (stereo not drawn) showed an IC50 of more than 195 µM.

In turn, `CC(C)C(NC(=O)C1CCCC1)c1cc(O)nc(-c2cccnc2)n1` (stereo not drawn) had a concentration for half-maximal inhibition (IC50) of more than 195 µM.

`C=Cn1ncc(CN2CCC(c3ncc(Cl)cc3S(C)(=O)=O)CC2)c1C`: the IC50 was more than 195 µM.

As to `O=C(COc1cccc(Cl)c1)N1CCOCC1c1ncon1` (stereo not drawn), the IC50 is more than 195 µM.

The compound `Fc1ccc(-c2nc(CN3CCCC3Cn3cncn3)co2)cc1` (stereo not drawn) showed a half-inhibitory concentration (IC50) of more than 195 µM.

With `CCN(c1ccc(C(=O)N2CCCC2c2cnn(C)c2)cn1)C(C)C` (stereo not drawn), the IC50 was more than 195 µM.

Turning to `N#Cc1cccc(CN2CC[C@@H]3CN(c4ncccn4)CCO[C@@H]3C2)c1`, the half-maximal inhibitory concentration (IC50) is more than 195 µM.

Turning to `Cc1ccc(C(=O)NS(=O)(=O)c2cc(Br)ccc2C)c(=O)[nH]1`, the IC50 was more than 195 µM.

The compound `CCc1cc(O)nc(C2CCCN2C(=O)COC)n1` (stereo not drawn) gave an IC50 of more than 195 µM.

Compound `Cn1cc(C(=O)NCc2cncc3c2CCN(CC2CC2)C3)cn1` showed an IC50 of more than 195 µM.

On to `Nc1nccnc1C1CN(Cc2ccc(OCC(=O)O)cc2)CCO1` (stereo not drawn), for which the concentration for half-maximal inhibition (IC50) was more than 195 µM.

Turning to `O=C(c1ccc(=O)[nH]n1)N1CCNCC1c1ccccc1` (stereo not drawn), the half-inhibitory concentration (IC50) is more than 195 µM.

`Cc1cc(C)nc(C2CCCNC2)n1` (stereo not drawn) gave an IC50 of more than 195 µM.

With `O=C(NC[C@H]1CC[C@H](c2nnc(-c3cccnc3)o2)CC1)C1CC1`, the half-inhibitory concentration (IC50) is more than 195 µM.

As to `OCCN1CCN(Cc2cnc3c(-c4ccccc4)cnn3c2)CC1`, the half-maximal inhibitory concentration (IC50) is more than 195 µM.

Compound `Cc1cncc(C2CCN(C(=O)CCc3ccnn3C)CC2)n1` had an IC50 of more than 195 µM.

`CN(C)C(=O)CO[C@H]1CN(Cc2ccsc2)[C@@H]2COC[C@H]12` gave a half-inhibitory concentration (IC50) of more than 195 µM.

For `Fc1ccccc1OCCc1cc(C2CNCCO2)n[nH]1` (stereo not drawn), the IC50 is more than 195 µM.

As for `CN1CC(c2cc(O)nc(NCc3ccc(Cl)cc3)n2)CC1=O` (stereo not drawn), the IC50 was more than 195 µM.

Compound `COCCC(=O)N1CCC2(COCc3cnc(-c4cccnc4)nc32)C1` (stereo not drawn) gave an IC50 of more than 195 µM.

Consider `CCOCC1c2c(ncn2C)CCN1C(=O)c1cscn1` (stereo not drawn), for which the IC50 is more than 195 µM.

In the case of `CC(C)CN1C[C@H](COCc2ccccc2)Oc2ncccc2C1=O`, the half-maximal inhibitory concentration (IC50) was more than 195 µM.

With `c1cnc(N2CCCC(c3n[nH]c4ncccc34)C2)nc1` (stereo not drawn), the IC50 was more than 195 µM.

`Cc1cc(C[C@@H]2CCC[C@H]2NCc2ccccc2F)on1` had an IC50 of more than 195 µM.

On to `COc1cc(CN2CC[C@H](NC(C)=O)[C@@H](O)CC2)ccc1F`, for which the concentration for half-maximal inhibition (IC50) is more than 195 µM.

In the case of `COc1cccc(CN2CC[C@H](NC(C)=O)[C@@H](O)CC2)c1F`, the IC50 is more than 195 µM.

As to `CC(=O)Nc1nc(C2CCN(C(=O)c3cncs3)CC2)cs1`, the half-inhibitory concentration (IC50) is more than 195 µM.

Turning to `CN1CC(=O)c2sc(NCCc3ccccc3)nc2C1`, the IC50 was more than 195 µM.

`Cc1nn(C)c(N(C)C)c1CNCCS(C)(=O)=O` showed a half-maximal inhibitory concentration (IC50) of more than 195 µM.

As for `Cc1nc(C2CCCN2C(=O)COc2ccccc2)ncc1C(N)=O` (stereo not drawn), the IC50 is more than 195 µM.

In turn, `O=C1CCC(=O)N1c1nn(Cc2ccc(F)cc2)cc1Cl` gave a half-maximal inhibitory concentration (IC50) of more than 195 µM.

`CC(CC#N)n1ccc(C(F)(F)F)n1` (stereo not drawn) had an IC50 of more than 195 µM.

`O=C(N[C@@H]1CCC[C@@H](N2CCCC2)[C@@H]1O)c1cc2ccccc2[nH]1` had an IC50 of more than 195 µM.
